The text below walks through data of patent publication US9469632B2, “6-substituted-3H-1,3-benzothiazol-2-one compounds as TARP-gamma 8 dependent AMPA receptor antagonists” (Eli Lilly and Company, priority 2014, dated 2016).

One may read the IC50 as the concentration at which inhibition is half-maximal.

One experiment deals with formalin induced pain. Description: Manual formalin induced pain model. The following applies: mice, p.o. In kind it is in vivo. On the procedure:
The manual formalin induced pain model is well known for screening compounds for analgesic properties (Mogil J. S. et al., Heritability of nociception I: Responses of 11 inbred mouse strains on 12 measures of nociception. Pain 80 (1999) 67-82). The assay is performed in Plexiglas® boxes approx. 10 cm×10 cm×10 cm in size. A minor placed at the back of the cage allows the unhindered observation of the formalin injected paw. Non-fasted male mice (Harlan (HSD) CD1-Icr) are placed individually in the cubicles at least 60 min. prior to the experiment. All testing is conducted between 08:00 and 16:00 hr. and the testing room temperature is maintained at 21-23° C. […] Formalin (20 uL of a 5% solution in 0.9% saline) is injected subcutaneously into the plantar surface of the left hind paw with a 27 gauge needle. Observation starts immediately after the formalin injection. Formalin induced pain is quantified by recording the number of seconds each licking event lasts in 5 min intervals. The pain scoring is measured for 60 min. after the formalin injection. Two phases of pain behavior are observed as previously described (Wheeler-Aceto, H., Porreca, F. and Cowan, A., The rat paw formalin test: comparison of noxious agents, Pain 40 (1990) 229-238). The early phase starts immediately after the formalin injection and lasts approximately 5 min., followed by the late phase that starts between minutes 10-15 with a maximum response typically observed around 25-40 min after the formalin injection. After the 60 min. observation period, animals are sacrificed with CO2 followed by cervical dislocation. Of the different scoring parameters reported for the formalin test, the total time spent licking and biting the injected paw is considered to be most relevant. (Abbott et al., The formalin test: scoring properties of the first and second phases of the pain response in rats, Pain 60 (1995) 91-102; Coderre et al., The formalin test: a validation of the weighted-scores method of the behavioral pain rating, Pain 54 (1993) 43-50).) The early phase score is the sum of time spent licking (seconds) from time 0 to 5 min. The late phase score is obtained by adding the total number of seconds spent licking from minute 15 to min 55 of the observation period. Data are presented as means with standard errors of means (±SEM). Data are evaluated by one-way analysis of variance (ANOVA) and the appropriate contrasts analyzed by Dunnett “t” test for two sided comparisons. Differences are considered to be significant if the P-value is less than 0.05. (Abbott, supra.; Coderre, supra.; and Wheeler-Aceto, supra.)

Experiment [1] addresses T1, TARP γ8 dependent GluA1 flop receptors (Homo sapiens, UniProt P42261+Q8WXS5).
T1 construct: expressed in transfected cells; host or cells: CHO-S (Invitrogen), transient transfection
The experiment is described as follows: FLIPR antagonist functional assay, GluA1 flop co-expressed with TARP γ8 in CHO-S cells. It counts as cell-based. The following applies: glutamate 45 μM plus CTZ 20 μM, read-out: relative IC50, inhibition of glutamate plus CTZ activation of TARP γ8 dependent GluA1 flop receptors. On the procedure:
(§1) Briefly, CHO-S (Invitrogen) cells are grown in suspension in 50/50 custom media to a density of 1×10^7 cells/ml. (50/50 custom media is a low calcium media made as a 1:1 (v/v) mixture of CD CHO media (Gibco #10743) and a custom complete media. The custom complete media is made by adding 0.40 mg/L tropolone, 5.00 mg/L insulin, 20 mM HEPES, and 0.075% Pluronic® F68 to a custom basal media having the following formula: (values as mg/L unless otherwise specified) 11.01 anhydrous calcium chloride, 0.050 ferric nitrate-9H2O, 0.420 ferrous sulfate-7H2O, 28.64 anhydrous magnesium chloride, 48.84 anhydrous magnesium sulfate, 312.14 KCl, 5505.96 NaCl, 62.57 monobasic sodium phosphate, 71.28 anhydrous dibasic sodium phosphate, 0.432 zinc sulfate-7H2O, 10.0 ethanolamine HCl, 6000 D-glucose (dextrose), 0.210 DL lipoic acid thioctic, 0.081 putrescine 2 HCl, 4.78 sodium hypoxanthine, 220.24 sodium pyruvate, 0.730 thymidine, 8.90 L-alanine, 211.23 L-arginine HCl, 15.02 L-asparagine H2O, 13.31 L-aspartic acid, 62.67 cystine 2 HCl, 7.360 L-glutamic acid, 146.16 L-Glutamine, 30.0 gylicine, 42.04 L-histidine HCl 2 H2O, 105.11 L-isoluecine, 105.11 L-luecine, 146.16 L-lysine HCl, 30.03 L-methionine, 66.07 L-phenylalanine, 17.27 L-proline, 42.04 L-serine, 95.1 L-threonine, 16.02 L-typtophan, 104.11 L-tyrosine disodium salt, 94.1 L-valine, 8.99 choline chloride, 4.00 folic acid, 12.61 I inositol, 4.00 niacinamide, 4.00 pyridoxal HCl, 0.031 pyridoxine HCl, 0.400 riboflavin, 4.00 sodium pantothenate, 4.00 thiamine HCl, 0.680 vitamin B 12, and 2200 sodium bicarbonate.) Cells are centrifuged at 1000×g for […] and resuspended in fresh 50/50 custom media at 2×10^6 cells/ml. For batch transfection, 2 mg of total DNA(s) is used for each liter of cells. For GluA1-γ8 transfection of CHO-S cells, human GluA1 Qflop-Cacng8-pBudCE4.1 DNA (Qiagen) and human EAAT3 pAN104 DNA (Qiagen, a […]) are mixed in a ratio of 2:3. For GluA1-γ2 transfection of CHO-S cells, human GluA1 Qflop-Cacng2-pBudCE4.1 (Qiagen) is used. For GluA1 flip transfection of CHO-S cells, human GluA1 flip pcDNA3.1 DNA (Qiagen) is used. DNA(s) and FreeStyle™ MAX Reagent (Invitrogen cat#16447-500) are added to basal custom media (see above) in the proportions of 10 μg total DNA: 10 plFreeStyleTm MAX Reagent: 1 ml media, to form a DNA complex. […]
(§2) Frozen transfected CHO-S cells expressing AMPA receptors are thawed and plated in Dulbecco's Modified Eagle Media (DMEM media) (Gibco, cat#11960) containing 5% dialyzed Fetal Bovine Serum (Gibco, cat#26400-036) and 20 mM HEPES at 50,000 cells per well in 384-well Poly-D-lysine coated plates (Becton Dickinson, cat#354663) and cultured overnight at 37° C. On the day of an experiment, two fluorescence dye loading buffers are prepared. […]

The target of experiment [2] is T2, TARP γ2 dependent GluA1 flop receptors (Homo sapiens, UniProt P42261+Q9Y698).
T2 construct: expressed in transfected cells; host or cells: CHO-S (Invitrogen), transient transfection
T2 sequence (P42261 19-906): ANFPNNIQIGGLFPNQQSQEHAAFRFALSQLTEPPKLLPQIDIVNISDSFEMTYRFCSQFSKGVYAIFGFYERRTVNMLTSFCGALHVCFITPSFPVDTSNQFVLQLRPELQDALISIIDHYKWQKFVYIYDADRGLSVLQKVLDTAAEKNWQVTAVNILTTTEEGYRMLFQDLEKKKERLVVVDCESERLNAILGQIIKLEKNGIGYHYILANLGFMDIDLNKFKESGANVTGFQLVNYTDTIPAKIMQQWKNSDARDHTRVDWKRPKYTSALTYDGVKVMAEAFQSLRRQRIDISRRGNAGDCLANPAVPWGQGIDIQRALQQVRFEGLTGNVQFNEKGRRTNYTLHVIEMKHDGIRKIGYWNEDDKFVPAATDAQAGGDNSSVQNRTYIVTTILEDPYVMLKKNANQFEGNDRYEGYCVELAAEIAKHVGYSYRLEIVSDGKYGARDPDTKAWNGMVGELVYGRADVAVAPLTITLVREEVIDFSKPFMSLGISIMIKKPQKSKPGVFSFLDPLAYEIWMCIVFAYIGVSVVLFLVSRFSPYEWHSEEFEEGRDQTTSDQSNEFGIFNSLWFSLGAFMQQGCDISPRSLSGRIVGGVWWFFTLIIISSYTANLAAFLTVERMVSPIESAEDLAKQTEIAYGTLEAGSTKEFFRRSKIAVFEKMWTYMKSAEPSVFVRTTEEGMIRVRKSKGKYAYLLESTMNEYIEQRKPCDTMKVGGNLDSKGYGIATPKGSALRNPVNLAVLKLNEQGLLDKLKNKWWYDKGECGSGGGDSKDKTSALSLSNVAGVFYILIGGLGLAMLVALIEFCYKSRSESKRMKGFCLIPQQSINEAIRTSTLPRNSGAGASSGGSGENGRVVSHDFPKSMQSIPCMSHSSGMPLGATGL
T2 sequence (Q9Y698 whole entry): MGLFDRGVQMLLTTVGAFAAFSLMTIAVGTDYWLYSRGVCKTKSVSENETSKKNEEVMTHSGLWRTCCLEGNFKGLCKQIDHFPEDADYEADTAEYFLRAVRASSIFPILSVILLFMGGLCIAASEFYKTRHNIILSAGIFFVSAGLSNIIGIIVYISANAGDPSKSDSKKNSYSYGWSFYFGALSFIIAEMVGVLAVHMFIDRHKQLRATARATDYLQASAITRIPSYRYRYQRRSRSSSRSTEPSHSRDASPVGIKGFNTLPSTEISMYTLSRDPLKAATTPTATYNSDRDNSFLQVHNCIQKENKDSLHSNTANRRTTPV
Description: FLIPR antagonist functional assay, GluA1 flop co-expressed with TARP γ2 in CHO-S cells. In kind it is cell-based. Conditions: glutamate 45 μM plus CTZ 20 μM, assay limit of 9260 nM. On the procedure: as §1, §2

In experiment [3] the target is T3, GluA1 flip isoform devoid of TARP (Homo sapiens, UniProt P42261).
T3 construct: expressed in transfected cells; host or cells: CHO-S (Invitrogen), transient transfection
T3 sequence (P42261 19-906 isoform P42261-2 limits assumed): as the sequence (P42261 19-906) above, with N740G, N750S, L754V, N760S, G772K, G773D, G774S, D775G counted along it
The experiment is described as follows: FLIPR antagonist functional assay, GluA1 flip expressed without TARP in CHO-S cells. In kind it is cell-based. The following applies: glutamate 45 μM plus CTZ 20 μM, assay limit of 9260 nM. On the procedure:
as §1, §2

“And” between values parts separate entries of the source, which are not always exact repeats. Equal values may be shown once.

T1 sequence (P42261 19-906): as the sequence (P42261 19-906) above
T1 sequence (Q8WXS5 whole entry): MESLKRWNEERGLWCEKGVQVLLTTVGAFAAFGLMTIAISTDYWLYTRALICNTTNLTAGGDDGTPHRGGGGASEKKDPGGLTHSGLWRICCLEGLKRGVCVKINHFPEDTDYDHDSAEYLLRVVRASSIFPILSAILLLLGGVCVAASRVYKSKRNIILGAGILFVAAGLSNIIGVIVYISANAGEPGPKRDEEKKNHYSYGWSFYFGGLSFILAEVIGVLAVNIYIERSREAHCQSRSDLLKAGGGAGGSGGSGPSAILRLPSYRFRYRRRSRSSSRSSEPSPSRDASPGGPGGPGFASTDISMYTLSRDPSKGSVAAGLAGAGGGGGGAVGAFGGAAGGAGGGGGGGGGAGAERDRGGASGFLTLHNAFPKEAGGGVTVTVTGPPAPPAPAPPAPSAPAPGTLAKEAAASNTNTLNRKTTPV

As for `COc1cccc(C2(O)CCCCC2CN(C)C)c1` (centres unmarked) [Tramadol, tramadol, reference compound], the “Percent reversal of Late Phase Licking” value with formalin induced pain (positive control 80 mg/Kg Tramadol, one value per experiment (Examples 3, 27, 30, 55)) is 94.7% and 86.97% and 57.96% and 81.84%.
Turning to `CC(c1ccc2[nH]c(=O)sc2c1)c1ccn(-c2ccc(CCC(C)(C)O)cn2)n1` (single isomer, unassigned) [Example 30], the “Percent reversal of Late Phase Licking” value in the experiment with formalin induced pain (3 mg/Kg) was 8.88%; in the experiment on formalin induced pain (10 mg/Kg) it was 11.77%; with formalin induced pain (30 mg/Kg), 47.77%; with formalin induced pain (60 mg/Kg), 62.14%.
Consider `CC(c1ccc2[nH]c(=O)sc2c1)c1csc(-c2ccccn2)n1` (single isomer, unassigned) [Example 53, 6-[1-(2-pyridin-2-yl-thiazol-4-yl)-ethyl]-3H-benzothiazol-2-one], for which the concentration for half-maximal inhibition (IC50) in experiment [1] is 0.0656 ± 0.0149 µM; in experiment [2], > 9.26 µM; in experiment [3], > 9.26 µM.
As to `C[C@@H](c1ccc2[nH]c(=O)sc2c1)c1ccn(-c2ccc(CCO)cn2)n1` (single isomer, unassigned) [Example 27], the IC50 in experiment [1] is 0.0616 ± 0.0235 µM; in experiment [2], > 9.26 µM; in experiment [3], > 9.26 µM. Besides, the “Percent reversal of Late Phase Licking” value with formalin induced pain (10 mg/Kg) is listed as 24.27%; in the experiment with formalin induced pain (30 mg/Kg), 57.15%; in the experiment with formalin induced pain (60 mg/Kg), 62.14%.
In the case of `CC(=O)c1ccc(-c2csc(C(C)c3ccc4[nH]c(=O)sc4c3)n2)nc1` (single isomer, unassigned) [Example 54, 6-[1-[4-(5-acetyl-2-pyridyl)thiazol-2-yl]ethyl]-3H-1,3-benzothiazol-2-one], the results for the IC50 in experiment [1], in experiment [2] and in experiment [3] were 0.0826 ± 0.0562 µM, > 9.26 µM and > 9.26 µM, respectively.
For `CC(c1ccc2[nH]c(=O)sc2c1)c1ccn(-c2ccc(N3CCC(O)CC3)cn2)n1` (single isomer, unassigned) [Example 3, 6-(1-(1-(5-(4-hydroxypiperidin-1-yl)pyridin-2-yl)-1H-pyrazol-3-yl)ethyl)benzo[d]thiazol-2(3H)-one], the values for the 50% inhibitory concentration (IC50) in experiment [1], in experiment [2] and in experiment [3] were 0.0911 ± 0.0481 µM, > 9.26 µM and > 9.26 µM, respectively. Also, the “Percent reversal of Late Phase Licking” value with formalin induced pain (1 mg/Kg) is 32.3%; in the experiment on formalin induced pain (3 mg/Kg), 43.8%; with formalin induced pain (10 mg/Kg) it was 66.2%.
For `CC(O)COCc1ccc(-n2ccc(C(C)c3ccc4[nH]c(=O)sc4c3)n2)nc1` (single isomer, unassigned) [Example 55, 6-[1-[1-[5-(2-hydroxypropoxymethyl)-2-pyridyl]pyrazol-3-yl]ethyl]-3H-1,3-benzothiazol-2-one], the “Percent reversal of Late Phase Licking” value amounted to 25.64% in the experiment with formalin induced pain (3 mg/Kg), 31.08% in the experiment with formalin induced pain (10 mg/Kg) and 63.47% in the experiment with formalin induced pain (30 mg/Kg).
